The target in assay [1] is T1, human glucose-dependent insulinotropic peptide receptor (GIPR) (Homo sapiens, UniProt P48546).
T1 construct: expressed in transfected cells
T1 sequence (P48546 22-466): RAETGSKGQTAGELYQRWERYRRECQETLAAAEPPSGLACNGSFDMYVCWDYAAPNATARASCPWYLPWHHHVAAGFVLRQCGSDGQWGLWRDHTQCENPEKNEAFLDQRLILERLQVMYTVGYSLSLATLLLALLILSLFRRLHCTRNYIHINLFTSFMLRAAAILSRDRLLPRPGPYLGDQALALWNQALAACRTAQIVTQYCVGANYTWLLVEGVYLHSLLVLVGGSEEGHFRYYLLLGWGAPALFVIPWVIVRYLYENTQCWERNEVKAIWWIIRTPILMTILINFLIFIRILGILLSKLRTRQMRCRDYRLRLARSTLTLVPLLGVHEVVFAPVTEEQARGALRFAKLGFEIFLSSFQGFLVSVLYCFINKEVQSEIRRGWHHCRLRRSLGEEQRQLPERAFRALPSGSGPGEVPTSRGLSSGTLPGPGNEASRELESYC
Description: cAMP assay, human GIPR cells. It counts as cell-based. The settings on record: cAMP assay. On the procedure:
(§1) Sample dilutions are made in duplicate.
(§2) A frozen cryo-vial of cells expressing the receptor of interest is thawed rapidly in a water-bath, transferred to pre-warmed assay buffer and spun at 240×g for 5 minutes. Cells are re-suspended in assay buffer at a batch-dependent optimized concentration (e.g. hGCGR cells at 2×10^5 cells/ml, hGLP-1R and hGIPR cells at 1×10^5 cells/ml).
(§3) To this, 5 μL cell suspension is added and the plates incubated at room temperature for 30 minutes.
(§4) cAMP levels are measured using a commercially available cAMP dynamic 2 HTRF kit (Cisbio, Cat #62AM4PEJ), following the two step protocol as per manufacturer's recommendations. In brief; anti-cAMP cryptate (donor fluorophore) and cAMP-d2 (acceptor fluorophore) are made up separately by diluting each 1/20 in conjugate & lysis buffer provided in the kit. 5 μL anti-cAMP cryptate is added to wells of the assay plate, and 5 μL cAMP-d2 is added to wells except non-specific binding (NSB) wells, to which conjugate and lysis buffer are added. […] EC50 values of the synthetic peptides determined in cAMP assays are then determined.
(§5) Data is transformed to % Delta F as described in the manufacturer's guidelines and analyzed by 4-parameter logistic fit to determine EC50 values. […] To compare the balance of activities at the GLP-1R and GCGR between different peptides and across different conditions, these can be correlated, where the EC50's are related to those of comparator peptides.
(In general: Changes in cAMP serve as a functional read-out for many G protein-coupled receptors.)

For assay [2], the target named is T2, human glucagon receptor (GCGR) (Homo sapiens, UniProt P47871).
T2 construct: expressed in transfected cells
Nature of the assay: cAMP assay, human GCGR cells. It counts as cell-based. Conditions: cAMP assay. On the procedure: as §1, §2, §3, §4, §5

[3] abbreviates: first determination (n1), read-out: Primary assay EC50 GIP-R (n1).
The mark [4] stands for this setting: second determination (n2), read-out: Primary assay EC50 GIP-R (n2).
The mark [5] stands for this setting: first determination (n1), read-out: Primary assay EC50 Gluc-R (n1).
Where [6] appears, read: second determination (n2), read-out: Primary assay EC50 Gluc-R (n2).

Like-named read-outs stand apart in the source and are kept apart here. Numbered stars: 1 amine (or outer) side, 2 acyl side, 3 side chain; on linkers, the order of the positions; unused ones are H or OH. Square brackets hold non-standard residues; d marks the D form. Side chains are listed from the residue outwards. Peptide text beside a SMILES is read from it. * marks the point of attachment. γGlu = O=C(O)[C@H](CCC(=O)[*:2])N[*:1]; Palmitoyl = CCCCCCCCCCCCCCCC(=O)*; αMeF = C[C@](N)(Cc1ccccc1)C(=O)O; αMeK = C[C@](N)(CCCCN)C(=O)O; αMeS = C[C@](N)(CO)C(=O)O; Aib = CC(C)(N)C(=O)O

T2 sequence (P47871 26-477): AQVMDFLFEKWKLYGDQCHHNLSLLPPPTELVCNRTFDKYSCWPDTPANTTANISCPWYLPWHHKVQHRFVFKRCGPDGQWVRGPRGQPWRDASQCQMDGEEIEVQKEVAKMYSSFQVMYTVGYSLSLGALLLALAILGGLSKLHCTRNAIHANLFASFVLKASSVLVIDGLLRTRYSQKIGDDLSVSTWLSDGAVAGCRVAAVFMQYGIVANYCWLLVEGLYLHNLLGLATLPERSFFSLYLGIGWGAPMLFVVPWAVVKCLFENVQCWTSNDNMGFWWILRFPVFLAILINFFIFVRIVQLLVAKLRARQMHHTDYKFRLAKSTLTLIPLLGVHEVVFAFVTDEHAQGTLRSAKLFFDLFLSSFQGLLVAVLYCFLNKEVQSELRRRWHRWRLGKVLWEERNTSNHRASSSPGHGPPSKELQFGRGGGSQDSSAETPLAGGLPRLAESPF

The term EC50 denotes the concentration needed to bring the measured effect to its halfway point. Consider `CC[C@H](C)[C@H](NC(=O)[C@H](Cc1ccccc1)NC(=O)[C@H](CCC(=O)O)NC(=O)[C@H](CCCCN)NC(=O)[C@H](C)NC(=O)[C@H](C)NC(=O)[C@H](CCC(N)=O)NC(=O)CNC(=O)[C@H](CCC(=O)O)NC(=O)[C@H](CC(C)C)NC(=O)[C@H](Cc1ccc(O)cc1)NC(=O)[C@H](CO)NC(=O)C(C)(C)NC(=O)[C@@H](NC(=O)[C@H](CC(=O)O)NC(=O)[C@H](CO)NC(=O)[C@@H](NC(=O)[C@H](Cc1ccccc1)NC(=O)[C@@H](NC(=O)CNC(=O)[C@H](CCC(=O)O)NC(=O)C(C)(C)NC(=O)[C@@H](N)Cc1c[nH]cn1)[C@@H](C)O)[C@@H](C)O)C(C)C)C(=O)N[C@@H](C)C(=O)N[C@@H](Cc1c[nH]c2ccccc12)C(=O)N[C@@H](CC(C)C)C(=O)N[C@H](C(=O)N[C@@H](CCCCN)C(=O)NCC(=O)N[C@@H](CCCNC(=N)N)C(N)=O)C(C)C` [compound 22] (H-H[Aib]EGTFTSDV[Aib]SYLEGQAAKEFIAWLVKGR-NH2; N-terminus assumed), for which the EC50 worked out at 0.48 µM in assay [1] (setting [3]), 0.48 µM in assay [1] (setting [4]), 0.39 µM in assay [2] (setting [5]) and 0.24 µM in assay [2] (setting [6]).

As for `CC[C@H](C)[C@H](NC(=O)[C@H](Cc1ccccc1)NC(=O)[C@H](CCC(=O)O)NC(=O)[C@H](CCCCN)NC(=O)[C@H](C)NC(=O)[C@H](C)NC(=O)[C@H](CCC(N)=O)NC(=O)CNC(=O)[C@H](CCC(=O)O)NC(=O)[C@H](CC(C)C)NC(=O)[C@H](Cc1ccc(O)cc1)NC(=O)[C@H](CO)NC(=O)[C@](C)(CO)NC(=O)[C@@H](NC(=O)[C@H](CC(=O)O)NC(=O)[C@](C)(CO)NC(=O)[C@@H](NC(=O)[C@H](Cc1ccccc1)NC(=O)[C@@H](NC(=O)CNC(=O)[C@H](CCC(=O)O)NC(=O)C(C)(C)NC(=O)[C@@H](N)Cc1c[nH]cn1)[C@@H](C)O)[C@@H](C)O)C(C)C)C(=O)N[C@@H](C)C(=O)N[C@@H](Cc1c[nH]c2ccccc12)C(=O)N[C@@H](CC(C)C)C(=O)N[C@H](C(=O)N[C@@H](CCCCN)C(=O)NCC(=O)N[C@@H](CCCNC(=N)N)C(N)=O)C(C)C` [compound 23], the EC50 in assay [1] (setting [3]), in assay [1] (setting [4]), in assay [2] (setting [5]) and in assay [2] (setting [6]) was ≥ 0.54 µM throughout.

With `CC[C@H](C)[C@H](NC(=O)[C@](C)(Cc1ccccc1)NC(=O)[C@H](CCC(=O)O)NC(=O)[C@](C)(CCCCN)NC(=O)[C@H](C)NC(=O)[C@H](C)NC(=O)[C@H](CCC(=O)O)NC(=O)CNC(=O)[C@H](CCC(=O)O)NC(=O)[C@H](CC(C)C)NC(=O)[C@](C)(Cc1ccccc1)NC(=O)[C@H](CO)NC(=O)[C@](C)(CO)NC(=O)[C@@H](NC(=O)[C@H](CC(=O)O)NC(=O)[C@H](CCC(=O)O)NC(=O)[C@@H](NC(=O)[C@](C)(Cc1ccccc1)NC(=O)[C@H](CO)NC(=O)CNC(=O)[C@H](CCC(=O)O)NC(=O)C(C)(C)NC(=O)[C@@H](N)Cc1c[nH]cn1)[C@@H](C)O)C(C)C)C(=O)N[C@@H](C)C(=O)N[C@@](C)(Cc1ccccc1)C(=O)N[C@H](C(=O)N[C@H](C(=O)N[C@@](C)(CCCCN)C(=O)NCC(=O)NCC(N)=O)C(C)C)C(C)C` [compound 28] (H-H[Aib]EGS[αMeF]TEDV[αMeS]S[αMeF]LEGEAA[αMeK]E[αMeF]IA[αMeF]VV[αMeK]GG-NH2), the EC50 in assay [1] (setting [3]), in assay [1] (setting [4]), in assay [2] (setting [5]) and in assay [2] (setting [6]) was ≥ 0.1 µM throughout.

As for `CC[C@H](C)[C@H](NC(=O)[C@](C)(Cc1ccccc1)NC(=O)[C@H](CCC(=O)O)NC(=O)[C@](C)(CCCCN)NC(=O)[C@H](C)NC(=O)[C@H](C)NC(=O)[C@H](CCC(=O)O)NC(=O)CNC(=O)[C@H](CCC(=O)O)NC(=O)[C@H](CC(C)C)NC(=O)[C@](C)(Cc1ccccc1)NC(=O)[C@H](CO)NC(=O)[C@](C)(CO)NC(=O)[C@@H](NC(=O)[C@H](CC(=O)O)NC(=O)[C@@H](NC(=O)[C@@H](NC(=O)[C@](C)(Cc1ccccc1)NC(=O)[C@H](CO)NC(=O)CNC(=O)[C@H](CCC(=O)O)NC(=O)C(C)(C)NC(=O)[C@@H](N)Cc1c[nH]cn1)[C@@H](C)O)[C@@H](C)O)C(C)C)C(=O)N[C@@H](C)C(=O)N[C@@](C)(Cc1ccccc1)C(=O)N[C@H](C(=O)N[C@H](C(=O)N[C@@](C)(CCCCN)C(=O)NCC(=O)NCC(N)=O)C(C)C)C(C)C` [compound 29] (H-H[Aib]EGS[αMeF]TTDV[αMeS]S[αMeF]LEGEAA[αMeK]E[αMeF]IA[αMeF]VV[αMeK]GG-NH2), the EC50 in assay [1] (setting [3]), in assay [1] (setting [4]), in assay [2] (setting [5]) and in assay [2] (setting [6]) was ≥ 0.1 µM throughout.

On to `CC[C@H](C)[C@H](NC(=O)[C@](C)(Cc1ccccc1)NC(=O)[C@H](CCC(=O)O)NC(=O)[C@H](CCC(=O)O)NC(=O)[C@H](C)NC(=O)[C@H](C)NC(=O)[C@H](CCC(=O)O)NC(=O)CNC(=O)[C@H](CCC(=O)O)NC(=O)[C@H](CC(C)C)NC(=O)[C@](C)(Cc1ccccc1)NC(=O)[C@H](CO)NC(=O)[C@](C)(CO)NC(=O)[C@@H](NC(=O)[C@H](CC(=O)O)NC(=O)[C@H](CO)NC(=O)[C@@H](NC(=O)[C@](C)(Cc1ccccc1)NC(=O)[C@H](CO)NC(=O)CNC(=O)[C@H](CCC(=O)O)NC(=O)C(C)(C)NC(=O)[C@@H](N)Cc1c[nH]cn1)[C@@H](C)O)C(C)C)C(=O)N[C@@H](C)C(=O)N[C@@](C)(Cc1ccccc1)C(=O)N[C@H](C(=O)N[C@H](C(=O)N[C@@H](CCC(=O)O)C(=O)NCC(=O)NCC(N)=O)C(C)C)C(C)C` [compound 44] (H-H[Aib]EGS[αMeF]TSDV[αMeS]S[αMeF]LEGEAAEE[αMeF]IA[αMeF]VVEGG-NH2), for which the EC50 in assay [1] (setting [3]), in assay [1] (setting [4]), in assay [2] (setting [5]) and in assay [2] (setting [6]) was ≥ 0.031 µM in each case.

`CCCCCCCCCCCCCCCC(=O)N[C@@H](CCC(=O)NCCCC[C@H](NC(=O)[C@](C)(Cc1ccccc1)NC(=O)[C@H](CCC(=O)O)NC(=O)[C@](C)(CCCCN)NC(=O)[C@H](C)NC(=O)[C@H](C)NC(=O)[C@H](CCC(=O)O)NC(=O)CNC(=O)[C@H](CCC(=O)O)NC(=O)[C@H](CC(C)C)NC(=O)[C@](C)(Cc1ccccc1)NC(=O)[C@H](CO)NC(=O)[C@](C)(CO)NC(=O)[C@@H](NC(=O)[C@H](CC(=O)O)NC(=O)[C@H](CO)NC(=O)[C@@H](NC(=O)[C@](C)(Cc1ccccc1)NC(=O)[C@H](CO)NC(=O)CNC(=O)[C@H](CCC(=O)O)NC(=O)C(C)(C)NC(=O)[C@@H](N)Cc1c[nH]cn1)[C@@H](C)O)C(C)C)C(=O)N[C@@H](C)C(=O)N[C@@](C)(Cc1ccccc1)C(=O)N[C@H](C(=O)N[C@H](C(=O)N[C@@](C)(CCCCN)C(=O)NCC(=O)NCC(N)=O)C(C)C)C(C)C)C(=O)O` [compound 77] (H-H[Aib]EGS[αMeF]TSDV[αMeS]S[αMeF]LEGEAA[αMeK]E[αMeF]K([γGlu-Palmitoyl])A[αMeF]VV[αMeK]GG-NH2): the EC50 in assay [1] (setting [3]), in assay [1] (setting [4]), in assay [2] (setting [5]) and in assay [2] (setting [6]) was ≥ 0.028 µM throughout.
